Blank lines part the entries; values can stand above or below the compound they belong to. The source made the active and inactive calls. The calls are words filed in the database; no cut-off is given here.
Experiments:
Hs-578T = test: Cytotoxicity against human Hs578T cells assessed as growth inhibition incubated for 48 hrs by SRB assay; assay type: functional
MDA-MB-231 = test: Cytotoxicity against human MDA-MB-231 cells assessed as growth inhibition incubated for 48 hrs by SRB assay; assay type: functional; settings: MDA-MB-231, 48 h
CCRF-CEM = test: Cytotoxicity against human CCRF-CEM cells assessed as growth inhibition incubated for 48 hrs by SRB assay; assay type: functional
SF-268 = test: Cytotoxicity against human SF268 cells assessed as growth inhibition incubated for 48 hrs by SRB assay; assay type: functional; settings: SF-268, 48 h
NCI-H226 = test: Cytotoxicity against human NCI-H226 cells assessed as growth inhibition incubated for 48 hrs by SRB assay; assay type: functional; settings: NCI-H226, 48 h
[1] = target: T1, Receptor tyrosine-protein kinase erbB-2 (Homo sapiens, UniProt P04626); test: Inhibition of HER2 (unknown origin) in presence of radiolabelled gammaATP by radioisotope filter binding assay
T1 sequence (P04626 whole entry): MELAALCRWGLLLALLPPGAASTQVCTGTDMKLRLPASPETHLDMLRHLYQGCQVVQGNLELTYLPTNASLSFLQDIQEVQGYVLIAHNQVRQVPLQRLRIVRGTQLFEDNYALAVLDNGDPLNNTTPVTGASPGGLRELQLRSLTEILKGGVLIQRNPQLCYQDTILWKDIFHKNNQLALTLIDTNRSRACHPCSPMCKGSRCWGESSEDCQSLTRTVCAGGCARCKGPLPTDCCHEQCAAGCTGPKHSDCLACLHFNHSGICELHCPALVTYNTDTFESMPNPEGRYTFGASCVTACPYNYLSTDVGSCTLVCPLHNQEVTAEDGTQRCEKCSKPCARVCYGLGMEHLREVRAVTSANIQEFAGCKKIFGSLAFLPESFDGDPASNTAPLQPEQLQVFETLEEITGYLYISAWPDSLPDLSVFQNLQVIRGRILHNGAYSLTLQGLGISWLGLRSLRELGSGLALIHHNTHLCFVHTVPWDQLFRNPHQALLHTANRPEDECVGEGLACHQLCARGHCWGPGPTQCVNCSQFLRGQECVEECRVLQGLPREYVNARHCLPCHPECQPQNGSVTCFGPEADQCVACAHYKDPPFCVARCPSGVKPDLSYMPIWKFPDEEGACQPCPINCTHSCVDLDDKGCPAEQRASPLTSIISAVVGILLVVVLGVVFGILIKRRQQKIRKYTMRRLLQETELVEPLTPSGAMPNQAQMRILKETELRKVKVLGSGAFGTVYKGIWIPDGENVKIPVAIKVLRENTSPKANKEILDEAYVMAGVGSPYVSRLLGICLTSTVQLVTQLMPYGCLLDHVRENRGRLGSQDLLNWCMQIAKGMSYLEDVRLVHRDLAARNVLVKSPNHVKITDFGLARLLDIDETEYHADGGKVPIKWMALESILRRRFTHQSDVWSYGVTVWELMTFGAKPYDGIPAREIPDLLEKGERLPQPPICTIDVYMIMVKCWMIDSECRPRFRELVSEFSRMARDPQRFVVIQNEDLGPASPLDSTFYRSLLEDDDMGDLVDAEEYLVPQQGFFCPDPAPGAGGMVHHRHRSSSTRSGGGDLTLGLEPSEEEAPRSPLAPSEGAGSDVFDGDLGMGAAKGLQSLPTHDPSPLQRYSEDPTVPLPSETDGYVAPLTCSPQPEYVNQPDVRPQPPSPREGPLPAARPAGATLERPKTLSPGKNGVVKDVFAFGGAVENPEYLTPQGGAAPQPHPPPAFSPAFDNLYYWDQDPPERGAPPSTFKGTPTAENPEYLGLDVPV

[2] = target: T2, Receptor tyrosine-protein kinase erbB-4 (Homo sapiens, UniProt Q15303); test: Inhibition of HER4 (unknown origin) in presence of radiolabelled gammaATP by radioisotope filter binding assay
T2 sequence (Q15303 whole entry): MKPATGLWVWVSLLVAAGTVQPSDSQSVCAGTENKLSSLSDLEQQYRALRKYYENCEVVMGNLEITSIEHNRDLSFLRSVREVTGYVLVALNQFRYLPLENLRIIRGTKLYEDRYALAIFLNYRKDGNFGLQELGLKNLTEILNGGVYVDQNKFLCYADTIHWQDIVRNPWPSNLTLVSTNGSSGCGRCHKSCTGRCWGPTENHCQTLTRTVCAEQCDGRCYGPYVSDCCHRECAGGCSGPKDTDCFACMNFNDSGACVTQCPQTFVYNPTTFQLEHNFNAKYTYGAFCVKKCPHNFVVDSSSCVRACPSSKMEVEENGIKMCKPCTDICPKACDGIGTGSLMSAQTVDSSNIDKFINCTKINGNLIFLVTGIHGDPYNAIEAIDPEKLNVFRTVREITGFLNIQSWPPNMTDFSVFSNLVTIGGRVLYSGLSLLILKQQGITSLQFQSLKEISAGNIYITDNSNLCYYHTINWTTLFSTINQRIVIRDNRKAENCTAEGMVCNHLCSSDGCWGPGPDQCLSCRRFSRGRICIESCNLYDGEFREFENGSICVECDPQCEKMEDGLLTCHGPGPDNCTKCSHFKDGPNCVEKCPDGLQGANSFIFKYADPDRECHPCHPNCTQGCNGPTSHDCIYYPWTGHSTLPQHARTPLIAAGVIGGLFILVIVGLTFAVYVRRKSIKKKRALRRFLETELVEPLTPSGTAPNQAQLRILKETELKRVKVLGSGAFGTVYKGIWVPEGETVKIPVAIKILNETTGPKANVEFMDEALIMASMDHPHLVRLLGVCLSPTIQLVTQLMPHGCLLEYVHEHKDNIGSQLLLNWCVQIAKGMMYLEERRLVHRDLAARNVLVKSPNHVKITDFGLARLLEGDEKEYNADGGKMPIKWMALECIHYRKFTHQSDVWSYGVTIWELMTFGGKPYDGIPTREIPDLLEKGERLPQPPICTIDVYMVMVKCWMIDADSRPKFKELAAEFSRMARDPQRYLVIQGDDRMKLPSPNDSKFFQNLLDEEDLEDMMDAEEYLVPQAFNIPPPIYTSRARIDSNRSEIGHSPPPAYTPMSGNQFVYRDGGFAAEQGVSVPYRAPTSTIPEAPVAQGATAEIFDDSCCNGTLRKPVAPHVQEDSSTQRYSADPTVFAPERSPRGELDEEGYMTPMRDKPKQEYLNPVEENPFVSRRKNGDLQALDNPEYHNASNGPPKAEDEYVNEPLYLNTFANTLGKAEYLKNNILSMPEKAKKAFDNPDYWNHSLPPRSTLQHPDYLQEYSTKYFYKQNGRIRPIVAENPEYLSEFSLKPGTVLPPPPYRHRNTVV

[3] = target: Epidermal growth factor receptor (Homo sapiens, UniProt P00533, EX19DEL); test: Inhibition of EGFR ex19del mutant (unknown origin) in presence of radiolabelled gammaATP by radioisotope filter binding assay
Sequence of Epidermal growth factor receptor (Homo sapiens, UniProt P00533, EX19DEL) (P00533 whole entry, looked up, stated change not applied): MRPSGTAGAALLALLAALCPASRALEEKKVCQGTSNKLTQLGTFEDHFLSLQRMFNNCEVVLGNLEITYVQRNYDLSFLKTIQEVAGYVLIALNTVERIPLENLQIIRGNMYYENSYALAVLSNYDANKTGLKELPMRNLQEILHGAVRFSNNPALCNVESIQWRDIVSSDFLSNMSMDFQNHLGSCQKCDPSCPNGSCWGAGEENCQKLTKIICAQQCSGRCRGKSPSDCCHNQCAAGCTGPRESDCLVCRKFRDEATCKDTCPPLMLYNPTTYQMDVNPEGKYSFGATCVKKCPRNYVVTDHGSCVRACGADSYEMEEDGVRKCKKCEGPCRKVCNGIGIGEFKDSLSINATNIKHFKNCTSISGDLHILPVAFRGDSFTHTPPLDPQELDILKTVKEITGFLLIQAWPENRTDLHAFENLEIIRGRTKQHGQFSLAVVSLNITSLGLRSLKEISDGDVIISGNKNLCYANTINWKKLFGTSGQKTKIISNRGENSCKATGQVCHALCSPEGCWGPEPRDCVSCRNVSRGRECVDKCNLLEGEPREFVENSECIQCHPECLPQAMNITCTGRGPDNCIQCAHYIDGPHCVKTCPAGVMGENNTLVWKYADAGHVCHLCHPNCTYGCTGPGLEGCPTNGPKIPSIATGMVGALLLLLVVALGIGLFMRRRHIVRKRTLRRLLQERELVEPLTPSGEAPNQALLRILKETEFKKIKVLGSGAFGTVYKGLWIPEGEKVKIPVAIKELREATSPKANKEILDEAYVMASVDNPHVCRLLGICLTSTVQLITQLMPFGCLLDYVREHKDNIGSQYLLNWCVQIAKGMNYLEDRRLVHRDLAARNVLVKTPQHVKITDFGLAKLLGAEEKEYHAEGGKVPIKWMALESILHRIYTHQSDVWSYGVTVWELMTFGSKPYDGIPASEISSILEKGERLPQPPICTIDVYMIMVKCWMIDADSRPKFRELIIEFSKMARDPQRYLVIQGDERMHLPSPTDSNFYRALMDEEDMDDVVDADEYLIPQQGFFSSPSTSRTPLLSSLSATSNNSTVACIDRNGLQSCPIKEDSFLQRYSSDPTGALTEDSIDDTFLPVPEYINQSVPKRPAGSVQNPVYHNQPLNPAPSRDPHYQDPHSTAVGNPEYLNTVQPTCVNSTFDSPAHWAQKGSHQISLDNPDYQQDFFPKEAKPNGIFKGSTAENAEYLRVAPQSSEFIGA

K562 = test: Cytotoxicity against human K562 cells assessed as growth inhibition incubated for 48 hrs by SRB assay; assay type: functional; settings: K562, 48 h
SR = test: Cytotoxicity against human SR cells assessed as growth inhibition incubated for 48 hrs by SRB assay; assay type: functional
HCT-116 = test: Cytotoxicity against human HCT116 cells assessed as growth inhibition incubated for 48 hrs by SRB assay; assay type: functional; settings: HCT-116, 48 h
MOLT-4 [4] = test: Cytotoxicity against human MOLT4 cells assessed as growth inhibition incubated for 48 hrs by SRB assay; assay type: functional; settings: MOLT-4, 48 h
MDA-MB-468 = test: Cytotoxicity against human MDA-MB-468 cells assessed as growth inhibition incubated for 48 hrs by SRB assay; assay type: functional; settings: MDA-MB-468, 48 h
NCI-H460 [5] = test: Cytotoxicity against human NCI-H460 cells assessed as growth inhibition incubated for 48 hrs by SRB assay; assay type: functional; settings: NCI-H460, 48 h
[6] = target: T3, Epidermal growth factor receptor (Homo sapiens, UniProt P00533, L858R); test: Inhibition of EGFR L858R mutant (unknown origin) in presence of radiolabelled gammaATP by radioisotope filter binding assay
T3 sequence (P00533 25-1210 L858R limits assumed): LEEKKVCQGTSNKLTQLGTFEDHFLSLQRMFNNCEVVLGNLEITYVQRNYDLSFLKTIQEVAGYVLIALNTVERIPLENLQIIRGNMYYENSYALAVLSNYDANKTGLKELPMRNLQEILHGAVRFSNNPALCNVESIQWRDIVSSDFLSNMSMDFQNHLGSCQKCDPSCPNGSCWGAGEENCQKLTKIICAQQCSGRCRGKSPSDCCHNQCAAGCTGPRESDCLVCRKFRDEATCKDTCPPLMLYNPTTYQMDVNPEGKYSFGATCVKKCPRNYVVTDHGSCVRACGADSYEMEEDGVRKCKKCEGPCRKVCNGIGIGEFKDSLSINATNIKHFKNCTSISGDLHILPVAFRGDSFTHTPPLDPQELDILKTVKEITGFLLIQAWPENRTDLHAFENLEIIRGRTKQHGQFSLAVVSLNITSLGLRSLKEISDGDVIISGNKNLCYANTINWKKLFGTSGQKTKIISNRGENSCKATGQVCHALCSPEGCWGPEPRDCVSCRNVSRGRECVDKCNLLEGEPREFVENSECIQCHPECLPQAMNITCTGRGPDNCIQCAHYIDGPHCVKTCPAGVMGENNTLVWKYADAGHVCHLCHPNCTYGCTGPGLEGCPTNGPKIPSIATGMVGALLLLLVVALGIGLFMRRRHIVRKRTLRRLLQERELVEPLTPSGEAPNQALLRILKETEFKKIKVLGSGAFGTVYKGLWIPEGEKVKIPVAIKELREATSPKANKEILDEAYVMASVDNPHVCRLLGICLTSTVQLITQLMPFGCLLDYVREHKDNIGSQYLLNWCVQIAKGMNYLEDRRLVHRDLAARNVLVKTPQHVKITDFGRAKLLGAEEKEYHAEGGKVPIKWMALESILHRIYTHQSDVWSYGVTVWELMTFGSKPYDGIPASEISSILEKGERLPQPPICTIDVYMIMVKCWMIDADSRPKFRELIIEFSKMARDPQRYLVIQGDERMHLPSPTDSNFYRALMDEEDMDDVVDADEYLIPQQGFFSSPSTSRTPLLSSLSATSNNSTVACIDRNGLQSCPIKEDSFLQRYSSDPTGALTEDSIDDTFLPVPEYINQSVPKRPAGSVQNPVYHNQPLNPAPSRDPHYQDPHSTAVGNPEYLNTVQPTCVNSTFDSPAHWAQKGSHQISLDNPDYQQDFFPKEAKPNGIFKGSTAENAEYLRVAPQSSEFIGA

[7] = target: T4, Epidermal growth factor receptor (Homo sapiens, UniProt P00533); test: Inhibition of wild type EGFR (unknown origin) in presence of radiolabelled gammaATP by radioisotope filter binding assay
M14 = test: Cytotoxicity against human M14 cells assessed as growth inhibition incubated for 48 hrs by SRB assay; assay type: functional; settings: M14, 48 h
DU-145 = test: Cytotoxicity against human DU145 cells assessed as growth inhibition incubated for 48 hrs by SRB assay; assay type: functional; settings: DU-145, 48 h
SK-MEL-28 = test: Cytotoxicity against human SK-MEL-28 cells assessed as growth inhibition incubated for 48 hrs by SRB assay; assay type: functional; settings: SK-MEL-28, 48 h
MCF7 = test: Cytotoxicity against human MCF7 cells assessed as growth inhibition incubated for 48 hrs by SRB assay; assay type: functional; settings: MCF7, 48 h
PC-3 = test: Cytotoxicity against human PC3 cells assessed as growth inhibition incubated for 48 hrs by SRB assay; assay type: functional; settings: PC-3, 48 h
[8] = target: Epidermal growth factor receptor (Homo sapiens, UniProt P00533, L858R/T790M); test: Inhibition of EGFR L858R/T790M mutant (unknown origin) in presence of radiolabelled gammaATP by radioisotope filter binding assay
[9] = Toxicity in NMRI mouse xenografted with human HCT116 cells assessed as toxic signs at 10 mg/kg, ip administered for 14 days and observed on day 14; assay type: organism-based, HCT-116; settings: in vivo, 336 h
NCI-H460 [10] = test: Antitumor activity against human NCI-H460 cells loaded in hollow fibers implanted intraperitoneally in NMRI mouse assessed as reduction in cell viability at 10 mg/kg, ip administered for 14 days by celltiter glo assay; assay type: functional, organism-based
[11] = Toxicity in NMRI mouse xenografted with human NCI-H460 cells assessed as weight loss at 10 mg/kg, ip administered for 14 days and observed on day 14; assay type: organism-based; settings: in vivo, 336 h
[12] = target: Receptor tyrosine-protein kinase erbB-3 (Homo sapiens, UniProt P21860); test: Inhibition of recombinant human wild type partial length HER3 (684 to 987 residues) expressed in mammalian expression system by competitive binding assay
[13] = target: T4, Epidermal growth factor receptor; test: Inhibition of recombinant human N-terminal GST-tagged EGFR (669 to 1210 residues) expressed in baculovirus expression system by competitive binding assay
[14] = Toxicity in NMRI mouse xenografted with human MOLT4 cells assessed as toxic signs at 10 mg/kg, ip administered for 14 days and observed on day 14; assay type: organism-based, MOLT-4; settings: in vivo, 336 h
[15] = target: T2, Receptor tyrosine-protein kinase erbB-4
Description: Inhibition of recombinant human N-terminal GST-tagged HER4 (676 to 1308 residues) expressed in baculovirus expression system by competitive binding assay

[16] = target: T1, Receptor tyrosine-protein kinase erbB-2
Description: Inhibition of recombinant human N-terminal His-tagged HER2 (676 to 1255 residues) expressed in baculovirus expression system by competitive binding assay

[17] = target: T3, Epidermal growth factor receptor; test: Inhibition of recombinant human N-terminal GST-tagged EGFR L858R mutant (669 to 1210 residues) expressed in baculovirus expression system by competitive binding assay
[18] = Toxicity in NMRI mouse xenografted with human HCT116 cells assessed as weight loss at 10 mg/kg, ip administered for 14 days and observed on day 14; assay type: organism-based, HCT-116; settings: in vivo, 336 h
[19] = target: T2, Receptor tyrosine-protein kinase erbB-4; test: Inhibition of recombinant human wild type partial length HER4 (690 to 994 residues) expressed in bacterial expression system by competitive binding assay
MOLT-4 [20] = test: Antitumor activity against human MOLT4 cells loaded in hollow fibers implanted intraperitoneally in NMRI mouse assessed as reduction in cell viability at 10 mg/kg, ip administered for 14 days by celltiter glo assay; assay type: functional, organism-based
[21] = Toxicity in NMRI mouse xenografted with human MOLT4 cells assessed as weight loss at 10 mg/kg, ip administered for 14 days and observed on day 14; assay type: organism-based, MOLT-4; settings: in vivo, 336 h
[22] = Toxicity in NMRI mouse xenografted with human NCI-H460 cells assessed as toxic signs at 10 mg/kg, ip administered for 14 days and observed on day 14; assay type: organism-based; settings: in vivo, 336 h
[23] = target: T3, Epidermal growth factor receptor; test: Inhibition of recombinant human partial length EGFR L858R mutant (669 to 1011 residues) expressed in bacterial expression system by competitive binding assay

Compound: N#Cc1cnc2cc(OC[C@H](O)CO)c(NC(=O)CC3CSSC3)cc2c1Nc1ccc(OCc2cccc(F)c2)c(Cl)c1
GI50 (Hs-578T): 512 nM
TGI (Hs-578T): 1740 nM
GI50 (MDA-MB-231): 208 nM
TGI (MDA-MB-231): 722 nM
GI50 (CCRF-CEM): 112 nM
TGI (CCRF-CEM): 283 nM
GI50 (SF-268): 404 nM
TGI (SF-268): 1320 nM
GI50 (NCI-H226): 690 nM
TGI (NCI-H226): 1830 nM
IC50 [1]: 104 nM
IC50 [2]: 0.19 nM
IC50 [3]: 1280 nM
GI50 (K562): 148 nM
TGI (K562): 454 nM
GI50 (SR): 132 nM
TGI (SR): 608 nM
GI50 (HCT-116): 98 nM
TGI (HCT-116): 209 nM
GI50 (MOLT-4 [4]): 93 nM
TGI (MOLT-4 [4]): 209 nM
GI50 (MDA-MB-468): 120 nM
TGI (MDA-MB-468): 385 nM
GI50 (NCI-H460 [5]): 128 nM
TGI (NCI-H460 [5]): 312 nM
IC50 [6]: 387 nM
IC50 [7]: 2 nM
GI50 (M14): 141 nM
TGI (M14): 482 nM
GI50 (DU-145): 637 nM
TGI (DU-145): 1360 nM
GI50 (SK-MEL-28): 129 nM
TGI (SK-MEL-28): 350 nM
GI50 (MCF7): 91 nM
TGI (MCF7): 193 nM
GI50 (PC-3): 174 nM
TGI (PC-3): 455 nM

IC50 [2]: 284 nM
Compound: N#Cc1cnc2ccc(NC(=O)C3CSSC3)cc2c1Nc1ccc(OCc2cccc(F)c2)c(Cl)c1

IC50 [2]: 0.45 nM
IC50 [3]: 204 nM
IC50 [6]: 51 nM
IC50 [7]: 1.5 nM
IC50 [8]: > 10000 nM
Compound: N#Cc1cnc2cc(OC[C@@H](O)CO)c(NC(=O)C3CSSC3)cc2c1Nc1ccc(OCc2cccc(F)c2)c(Cl)c1

IC50 [2]: 1.2 nM
Compound: C=CC(=O)Nc1cc2c(Nc3ccc(F)c(Cl)c3)ccnc2cc1OCCC1CC12CCN(C)CC2 (configuration not stated)

Compound: N#Cc1cnc2cc(OC[C@@H](O)CO)c(NC(=O)CC3CSSC3)cc2c1Nc1ccc(OCc2cccc(F)c2)c(Cl)c1
GI50 (Hs-578T): 105 nM
TGI (Hs-578T): 282 nM
GI50 (MDA-MB-231): 103 nM
TGI (MDA-MB-231): 237 nM
GI50 (CCRF-CEM): 42 nM
TGI (CCRF-CEM): 146 nM
Activity [9]: Non-Toxic
inhibition (NCI-H460 [10]): Active
GI50 (SF-268): 83 nM
TGI (SF-268): 778 nM
Activity [11]: Non-Toxic
Kd [12]: 380 nM
GI50 (NCI-H226): 198 nM
TGI (NCI-H226): 883 nM
IC50 [1]: 121 nM
IC50 [13]: 12.3 nM
IC50 [2]: 0.03 nM
Activity [14]: Non-Toxic
IC50 [3]: 1990 nM
IC50 [15]: 12.2 nM
IC50 [16]: 112 nM
IC50 [17]: 18.1 nM
Activity [18]: Non-Toxic
GI50 (K562): 94 nM
TGI (K562): 208 nM
Kd [19]: 6 nM
inhibition (MOLT-4 [20]): Active
Activity [21]: Non-Toxic
GI50 (SR): 66 nM
TGI (SR): 246 nM
GI50 (HCT-116): 88 nM
TGI (HCT-116): 204 nM
Activity [22]: Non-Toxic
GI50 (MOLT-4 [4]): 74 nM
TGI (MOLT-4 [4]): 175 nM
GI50 (MDA-MB-468): 70 nM
TGI (MDA-MB-468): 155 nM
GI50 (NCI-H460 [5]): 103 nM
TGI (NCI-H460 [5]): 263 nM
IC50 [6]: 419 nM
IC50 [7]: 2.4 nM
GI50 (M14): 83 nM
TGI (M14): 251 nM
GI50 (DU-145): 134 nM
TGI (DU-145): 424 nM
GI50 (SK-MEL-28): 63 nM
TGI (SK-MEL-28): 136 nM
GI50 (MCF7): 86 nM
TGI (MCF7): 182 nM
Kd [23]: 9.2 nM
IC50 [8]: > 10000 nM
GI50 (PC-3): 89 nM
TGI (PC-3): 204 nM

Source: ChEMBL document CHEMBL4622931, “Potent dual EGFR/Her4 tyrosine kinase inhibitors containing novel (1,2-dithiolan-4-yl)acetamides” (Bioorg Med Chem Lett, 2020)
